{"source": "patent US9974767B2", "about": "“Statins in the treatment of muscular dystrophies and myopathies” (University of Washington, priority 2014, dated 2018)", "format_in_all_cases": "in vivo, mouse", "key": {"mdx mice [1]": {"tested_on": "mdx mice", "test": "Plasma creatine kinase (CK) activity as measure of whole-body muscle damage"}, "mdx mice [2]": {"tested_on": "mdx mice", "test": "Voluntary running wheel activity over 2 days", "settings": "P=0.13"}, "mdx mice [3]": {"tested_on": "mdx mice", "test": "H&E histology of tibialis anterior (TA) muscle", "settings": "mdx Sim vs mdx Con, 8 months treatment"}, "WT mice": {"tested_on": "WT mice", "test": "H&E histology of TA muscle, wild type mice", "settings": "8 months, 5-10 mg/kg/day", "method": "The dose used (5-10 mg/kg/day) is equivalent to a low to moderate dose in humans.\nDMD is a chronic, progressively degenerative disease and consequently potential treatments need to be effective over many years. […] The calculated dose given to the mice was between 5-10 mg/kg/day. This would equate to 20-40 mg/day for a 10 yea old DMD boy weighing 30 kg, based on mouse to human equivalence calculations, which is within the recommended dose range of statins for children.\nMuscles were imbedded in O.C.T compound and frozen in isopentane cooled in liquid nitrogen. Cryosections (10 μm thick) were placed on a glass side. Sections were fixed with either ice-cold methanol or 2% paraformaldehyde for 5 to 10 min. Some sections were stained with Haemotoxylin and Eosin (H & E) using standard procedures. For immunofluorescence, sections were incubated in blocking buffer (0.8% BSA and 1% fish gelatin in PBS) for 45 min. […] For fluorescence quantification (CD68, fibronectin and myosin heavy chains), images were converted to grayscale in Image J and a threshold applied to calculate the area of fluorescence as a percent of the total area of the section. Fibers with central nuclei were expressed as a percent of total fibers with detectable nuclei (ie. both central and peripheral)."}, "CD68": {"tested_on": "CD68", "test": "CD68 immunofluorescence of TA muscle sections (inflammation)", "settings": "mdx Sim vs mdx Con, 8 months treatment", "method": "Next, we quantified the extent of inflammation, a key feature of the dystrophic muscle pathology, by immunofluorescence of TA muscle sections with CD68, a marker of macrophages and other inflammatory cells.\nMuscles were imbedded in O.C.T compound and frozen in isopentane cooled in liquid nitrogen. Cryosections (10 μm thick) were placed on a glass side. Sections were fixed with either ice-cold methanol or 2% paraformaldehyde for 5 to 10 min. Some sections were stained with Haemotoxylin and Eosin (H & E) using standard procedures. For immunofluorescence, sections were incubated in blocking buffer (0.8% BSA and 1% fish gelatin in PBS) for 45 min. Primary antibodies; Fibronectin (Sigma), CD68 (Abcam), Caveolin3 (BD Biosciences), and Myosin Heavy Chain 1, 2A and 2B (Developmental Studies Hybridoma Bank) were added for 1 hr 30 min at room temperature. AlexaFluor conjugated secondary antibodies (Life Technologies) were then added for 1 hr 30 min. In some experiments, DAPI was also added to detect nuclei. […] For fluorescence quantification (CD68, fibronectin and myosin heavy chains), images were converted to grayscale in Image J and a threshold applied to calculate the area of fluorescence as a percent of the total area of the section. Fibers with central nuclei were expressed as a percent of total fibers with detectable nuclei (ie. both central and peripheral). […]"}, "[4]": {"tested_on": "Phospholamban (PLB), SERCA2a", "test": "SERCA2a, PLB S-16 and total PLB expression in cardiac muscle, immunoblotting", "settings": "old mdx mice, vs mdx Con", "text": "Aberrant Ca2+ handling in dystrophic cardiomyocytes leads to impaired relaxation, which is a major cause of diastolic dysfunction. […] Phospholamban (PLB) is a major inhibitor of SERCA activity and can therefore depress cardiac function."}, "atrogin-1": {"tested_on": "atrogin-1", "test": "Atrogin-1 mRNA in quadriceps muscles, qPCR", "settings": "old mdx Sim mice", "text": "Another pathway that has been implicated in statin myopathy is muscle atrophy mediated by atrogin-1, a ubiquitin-protein ligase that stimulates protein breakdown. Atrogin-1 is induced by statin treatment in animal models and humans with statininduced myopathy. However, in DMD, atrogin-1 levels are consistently lower than in normal muscle and are not increased at any stage of the disease.\nTotal RNA was isolated from quadriceps of WT, mdx, and simvastatintreated mdx mice using Trizol (Life Technologies) and further purified using an RNAeasy Kit (Qiagen). Real-time quantitative RT-PCR (qPCR) was performed using TaqMan chemistry and the ABI 7000 sequence detection system with 50 ng of RNA, ABI Fast Virus 1-Step Master Mix reagents, and primer sets specific for atrogin-1 and HPRT (Applied Biosystems). Data were obtained from 5 mice in each treatment group and normalized to the internal HPRT control."}}, "note": "“Also recorded” adds a separate entry of the source."}
{"smiles": "CCC(C)(C)C(=O)O[C@H]1C[C@@H](C)C=C2C=C[C@H](C)[C@H](CC[C@@H]3C[C@@H](O)CC(=O)O3)[C@H]21", "note": "[Simvastatin, simvastatin]", "values": [{"measurement": "reduction in plasma creatine kinase (CK) activity level", "setting": "mdx mice [1]; mdx Sim vs mdx Con, oral 5-10 mg/kg/day for 8 months from 3 weeks of age", "value": 85, "unit": "%"}, {"measurement": "reduction of CK levels compared to untreated mdx mice", "setting": "mdx mice [1]; mdx mice, 8 months, drinking water 10 mg/kg/day", "value": "~8", "unit": "fold"}, {"measurement": "voluntary running wheel activity, more than control mdx mice", "setting": "mdx mice [2]", "value": 20, "unit": "%"}, {"measurement": "number of centrally nucleated (regenerated) muscle fibers", "setting": "mdx mice [3]", "value": "comparable number"}, {"measurement": "muscle histology of WT mice (damage, inflammation)", "setting": "WT mice", "value": "no effect; also recorded: no evidence of muscle damage or inflammation"}, {"measurement": "muscle histology of WT mice (damage, inflammation)", "setting": "WT mice; listed as simvastatin", "value": "no effect"}, {"measurement": "reduction of inflammatory cell levels (CD68)", "setting": "CD68", "value": "~70", "unit": "%"}, {"measurement": "increase of PLB S-16", "setting": "[4]", "value": 55, "unit": "%"}, {"measurement": "atrogin-1 mRNA levels", "setting": "atrogin-1", "value": "not significantly different from mdx Con"}]}
